Common to all, as to assay type: functional, cell-based
The target of assay [1] is T1, Taste receptor type 2 member 5 (Homo sapiens) (UniProt Q9NYW4).
T1 sequence (whole entry): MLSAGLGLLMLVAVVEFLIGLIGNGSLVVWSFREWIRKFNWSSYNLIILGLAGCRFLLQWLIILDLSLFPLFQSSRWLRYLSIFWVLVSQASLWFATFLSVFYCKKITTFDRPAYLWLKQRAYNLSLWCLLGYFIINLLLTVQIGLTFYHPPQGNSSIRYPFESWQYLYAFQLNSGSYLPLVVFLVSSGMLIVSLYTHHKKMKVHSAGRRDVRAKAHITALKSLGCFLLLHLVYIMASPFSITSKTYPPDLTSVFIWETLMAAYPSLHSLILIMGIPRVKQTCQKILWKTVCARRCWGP
Put plainly: Antagonist activity at recombinant human N-terminal rat ST3 receptor-fused TAS2R5 expressed in HEK293T cells co-expressing Galpha16gust44 assessed as inhibition of denatonium saccharide-induced intracellular calcium level at 100 uM by FLIPR assay.

Assay [2] deals with Taste receptor type 2 member 19 (Homo sapiens) (UniProt P59542). Put plainly: Agonist activity at recombinant human N-terminal rat ST3 receptor-fused TAS2R48 expressed in HEK293T cells co-expressing Galpha16gust44 assessed as increase in intracellular calcium level at 100 uM by FLIPR assay.
Chain of Taste receptor type 2 member 19 (Homo sapiens) (P59542 whole entry, the tested form may be a part): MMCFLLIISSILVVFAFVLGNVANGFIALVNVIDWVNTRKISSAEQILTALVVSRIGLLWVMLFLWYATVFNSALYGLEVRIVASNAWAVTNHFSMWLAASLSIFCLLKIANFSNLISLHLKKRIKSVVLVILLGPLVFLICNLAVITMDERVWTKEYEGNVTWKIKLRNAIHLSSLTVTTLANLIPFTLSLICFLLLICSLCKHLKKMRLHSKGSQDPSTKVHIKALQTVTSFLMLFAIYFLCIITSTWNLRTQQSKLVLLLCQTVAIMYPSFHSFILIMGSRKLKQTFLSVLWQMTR
For assay [3], the target named is Taste receptor type 2 member 42 (Homo sapiens) (UniProt Q7RTR8). Put plainly: Agonist activity at recombinant human N-terminal rat ST3 receptor-fused TAS2R42 expressed in HEK293T cells co-expressing Galpha16gust44 assessed as increase in intracellular calcium level at 100 uM by FLIPR assay.
Chain of Taste receptor type 2 member 42 (Homo sapiens) (Q7RTR8 whole entry, the tested form may be a part): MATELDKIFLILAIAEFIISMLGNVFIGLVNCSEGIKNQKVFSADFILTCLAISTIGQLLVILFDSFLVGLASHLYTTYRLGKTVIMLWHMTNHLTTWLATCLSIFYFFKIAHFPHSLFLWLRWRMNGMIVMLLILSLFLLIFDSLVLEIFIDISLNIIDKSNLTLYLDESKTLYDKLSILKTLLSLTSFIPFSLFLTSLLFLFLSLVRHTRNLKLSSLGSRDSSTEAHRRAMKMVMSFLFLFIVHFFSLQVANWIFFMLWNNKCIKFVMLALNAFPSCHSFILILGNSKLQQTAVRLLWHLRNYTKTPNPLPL
In assay [4] the target is T2, Taste receptor type 2 member 39 (Homo sapiens) (UniProt P59534).
T2 sequence (whole entry): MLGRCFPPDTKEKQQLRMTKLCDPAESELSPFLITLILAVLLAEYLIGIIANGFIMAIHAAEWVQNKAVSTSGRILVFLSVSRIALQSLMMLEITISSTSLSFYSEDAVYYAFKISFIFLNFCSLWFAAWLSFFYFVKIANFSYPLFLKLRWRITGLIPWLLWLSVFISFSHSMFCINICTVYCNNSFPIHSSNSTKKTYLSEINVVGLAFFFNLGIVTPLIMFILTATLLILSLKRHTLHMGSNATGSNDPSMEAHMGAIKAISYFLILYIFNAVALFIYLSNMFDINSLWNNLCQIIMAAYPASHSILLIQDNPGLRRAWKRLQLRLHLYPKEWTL
The assay is described as follows: Agonist activity at recombinant human N-terminal rat ST3 receptor-fused TAS2R39 expressed in HEK293T cells co-expressing Galpha16gust44 assessed as increase in intracellular calcium level at 100 uM by FLIPR assay.

The target in assay [5] is T3, Taste receptor type 2 member 20 (Homo sapiens) (UniProt P59543).
T3 sequence (whole entry): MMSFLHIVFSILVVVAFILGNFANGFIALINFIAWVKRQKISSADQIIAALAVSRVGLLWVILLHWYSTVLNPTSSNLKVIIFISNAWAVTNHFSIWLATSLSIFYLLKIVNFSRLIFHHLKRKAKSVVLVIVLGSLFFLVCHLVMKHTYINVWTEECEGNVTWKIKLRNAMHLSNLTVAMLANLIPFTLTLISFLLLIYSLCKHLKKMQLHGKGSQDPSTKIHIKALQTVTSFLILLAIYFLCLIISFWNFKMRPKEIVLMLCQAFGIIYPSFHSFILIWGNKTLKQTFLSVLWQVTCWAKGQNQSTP
Put plainly: Agonist activity at recombinant human N-terminal rat ST3 receptor-fused TAS2R49 expressed in HEK293T cells co-expressing Galpha16gust44 assessed as increase in intracellular calcium level at 100 uM by FLIPR assay.

Assay [6] has as its target T1, Taste receptor type 2 member 5 (Homo sapiens). Put plainly: Agonist activity at recombinant human N-terminal rat ST3 receptor-fused TAS2R5 expressed in HEK293T cells co-expressing Galpha16gust44 assessed as increase in intracellular calcium level at 100 uM by FLIPR assay.
For assay [7], the target named is T4, Taste receptor type 2 member 13 (Homo sapiens) (UniProt Q9NYV9).
T4 sequence (whole entry): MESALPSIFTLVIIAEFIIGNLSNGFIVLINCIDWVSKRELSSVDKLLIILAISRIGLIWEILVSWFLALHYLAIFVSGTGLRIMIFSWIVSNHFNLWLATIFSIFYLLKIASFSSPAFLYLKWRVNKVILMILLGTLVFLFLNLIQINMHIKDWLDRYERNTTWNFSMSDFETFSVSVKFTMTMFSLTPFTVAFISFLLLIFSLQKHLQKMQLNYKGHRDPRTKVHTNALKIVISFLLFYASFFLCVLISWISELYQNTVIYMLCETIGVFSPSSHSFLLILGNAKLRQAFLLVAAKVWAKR
Put plainly: Agonist activity at recombinant human N-terminal rat ST3 receptor-fused TAS2R13 expressed in HEK293T cells co-expressing Galpha16gust44 assessed as increase in intracellular calcium level at 100 uM by FLIPR assay.

Assay [8] addresses Taste receptor type 2 member 60 (Homo sapiens) (UniProt P59551). Put plainly: Agonist activity at recombinant human N-terminal rat ST3 receptor-fused TAS2R60 expressed in HEK293T cells co-expressing Galpha16gust44 assessed as increase in intracellular calcium level at 100 uM by FLIPR assay.
Assay [9] has as its target T5, Taste receptor type 2 member 30 (Homo sapiens) (UniProt P59541).
T5 sequence (whole entry): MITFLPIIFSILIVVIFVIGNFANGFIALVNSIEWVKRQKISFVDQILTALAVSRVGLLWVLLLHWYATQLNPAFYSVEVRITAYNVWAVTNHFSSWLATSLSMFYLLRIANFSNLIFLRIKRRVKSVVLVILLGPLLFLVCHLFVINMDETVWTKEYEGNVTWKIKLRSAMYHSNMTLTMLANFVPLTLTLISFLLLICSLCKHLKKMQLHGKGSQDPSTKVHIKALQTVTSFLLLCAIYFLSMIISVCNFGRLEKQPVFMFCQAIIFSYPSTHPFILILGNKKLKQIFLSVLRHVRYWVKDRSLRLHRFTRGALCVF
The assay is described as follows: Agonist activity at recombinant human N-terminal rat ST3 receptor-fused TAS2R47 expressed in HEK293T cells co-expressing Galpha16gust44 assessed as increase in intracellular calcium level at 100 uM by FLIPR assay.

The target in assay [10] is T1, Taste receptor type 2 member 5 (Homo sapiens). Put plainly: Potentiation of denatonium saccharide-induced agonist activity at recombinant human N-terminal rat ST3 receptor-fused TAS2R5 expressed in HEK293T cells co-expressing Galpha16gust44 assessed as increase in intracellular calcium level at 100 uM by FLIPR assay.

Molecules are shown by their SMILES. Active and inactive are the calls of the source. The rule behind the calls is not given here.

Chain of Taste receptor type 2 member 60 (Homo sapiens) (P59551 whole entry, the tested form may be a part): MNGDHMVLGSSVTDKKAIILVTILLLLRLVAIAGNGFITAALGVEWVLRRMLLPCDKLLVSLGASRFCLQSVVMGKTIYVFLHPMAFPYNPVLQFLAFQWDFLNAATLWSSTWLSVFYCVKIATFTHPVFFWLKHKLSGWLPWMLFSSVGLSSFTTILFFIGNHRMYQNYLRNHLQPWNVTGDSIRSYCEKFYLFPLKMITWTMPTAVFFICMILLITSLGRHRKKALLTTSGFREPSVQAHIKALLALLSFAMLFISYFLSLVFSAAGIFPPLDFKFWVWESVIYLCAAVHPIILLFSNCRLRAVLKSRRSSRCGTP

Regarding `C/C1=C\C[C@H](O)[C@@H](C)C[C@H]2OC(=O)[C@@H](C)[C@@H]2CC1`, the inhibition result in assay [1] is “inactive”.

As for `C/C1=C\C[C@H](O)/C(C)=C/[C@H]2OC(=O)[C@@H](C)[C@@H]2CC1`, the result in assay [2], in assay [3], in assay [4], in assay [5], in assay [6] and in [7] was inactive. Further, the result in [8] and in assay [9] was inactive. For the same molecule, the result in assay [10] was Active.

(Values after ChEMBL document CHEMBL4418912, “Methods of identifying antagonists of the hTAS2R46 bitter taste receptor” (2014).)
